Bridge positions count the residues as written; N and C are the ends. Peptide text beside a SMILES is read from it. * marks the point of attachment. Biotin = O=C1N[C@H]2[C@H](CS[C@H]2CCCCC(=O)*)N1
Columns and labels:
[1] = ELISA binding of biotinylated peptides to immobilized lipid A; conditions: biotinylated peptide 0.1-10 μg/ml on immobilized lipid A; FIG. 8, 9
Description: The lipid A-binding activities of the peptides are shown in an ELISA format as follows. An ELISA plate (NUNC, Polysorp 96U) is coated for 90 minutes at 37° C. with 100 μl lipid A in PBS (0.25-1 μg/ml). All further steps are done at room temperature. After washing and blocking (10 min.) with PBS/0.1% Tween, the solid phase is incubated for 1 hour with 100 μl of increasing amounts (0.1 μg/ml-10 μg/ml) of purified synthetic peptides (dissolved in PBST) labelled at the N-terminus with biotin. After washing with PBS/0.1% Tween, the bound peptides are incubated for 45 min. with 100 μl streptavidin conjugated to alkaline phosphatase (Boehringer Mannheim GmbH; 1:10000 diluted in PBS/0.1% Tween), followed again by washing with PBS/0.1% Tween and 100 mM Tris pH 9.5. p-Nitrophenylphosphate (2 mg/ml in 100 mM Tris pH 9.5) is used as a substrate for alkaline phosphatase. The ELISA is read at 405 nm.
To investigate the importance of the constrained conformation for high affinity peptide-lipid A binding, binding activity of cyclic and the corresponding linear peptides is compared.

[2] = Chromogenic Limulus amebocyte lysate test; type: biochemical, E. coli; conditions: peptides 0.1-10 μg/ml preincubated with LPS 15 min at 37° C.; FIG. 19
Description: (§1) The Limulus amebocyte Lysate test (gelling assay; sensitivity 0.125 EU/ml) and the Chromogenic Limulus amebocyte Lysate test (sensitivity 0.06 EU/ml) are performed according to the manufacturer's instruction (Bio*Whittaker, Walkersville, Md.) using E. coli 055:B5 lipopolysaccharide. For neutralisation of LPS, peptides (0.1-10 μg/ml) and LPS are incubated for 15 min. at 37° C. and then added to the Limulus lysate. […] The chromogenic assay allows quantification of the lipopolysaccharide neutralizing capacity of the peptides.

[3] = system: LALF binding to immobilized lipid A; experiment: Influence of serum on the competition of LALF:lipid A binding by peptide; conditions: 100 μg/ml peptide, 10% fetal calf serum; FIG. 18
Description: To investigate the specificity of peptides in binding lipid A and LPS, competition experiments with known endotoxin binding proteins such as LALF and LBP and the antibiotic polymyxin B are carried out. Thus an ELISA plate (NUNC, Polysorp 96U) is coated for 90 min. at 37° C. with 100 μl lipid A in PBS (0.25-0.3 μg/ml) or lipopolysaccharide in PBS (0.25-0.3 μg/ml). All further steps are done at room temperature. After washing and blocking (10 min.) with PBS/0.1% Tween, the solid phase is incubated for 1 hr with 100 μl or increasing amounts (0.01 μg/ml-100 μg/ml in PBS/0.1% Tween) of unlabelled or biotin-labelled peptides mixed with an endotoxin binding protein (LALF or LBP; 0.2 μg/ml in PBS/0.1% Tween). After washing with PBS/0.1% Tween, the ELISA plate is incubated for 45 min. with 100 μl of a rabbit antiserum against LALF or LBP, respectively. After washing with PBS/0.1% Tween the ELISA plate is incubated with 100 μl anti-rabbit antibody conjugated to alkaline phosphatase (SIGMA; 1:10000 diluted in PBS/0.1% Tween) and washed with PBS/0.1% Tween and 100 mM Tris pH 9.5. p-Nitrophenyl-phosphate (2 mg/ml in 100 mM Tris pH 9.5) is used as a substrate for alkaline phosphatase. The ELISA is read at 405 nm. […]

[4] = system: biotin-labelled LBP-14 binding to immobilized lipid A; experiment: Competition of LBP14:lipid A binding by peptides and proteins (ELISA); conditions: unlabelled competitor in increasing amounts, biotin-LBP-14 1 μg/ml; FIG. 16; very similar result with LALF-14
Description: An ELISA plate (NUNC, Polysorp 96U) is coated for 90 min. at 37° C. with 100 μl lipid A in PBS (0.2-0.3 μg/ml). All further steps are done at room temperature. After washing and blocking (10 min.) with PBS/0.1%. Tween, the solid phase is incubated for 1 hr with 100 μl of increasing amounts (0.01 μg/ml-10 μg/ml) of unlabelled peptides or proteins mixed with a biotin-labelled peptide (1 μg/ml in PBST/0.1% Tween). After washing with PBS/0.1% Tween, 100μl streptavidin conjugated to alkaline phosphatase (Boehringer Mannheim GmbH, 1:10000 diluted in PBS/0.1% Tween) is added to the wells. This incubation is followed by washing with PBS/0.1% Tween and 100 mM Tris pH 9.5. p-Nitrophenyl-phosphate (2 mg/ml in 100 mM Tris pH 9.5) is used as a substrate for alkaline phosphatase. The ELISA is read at 405 nm.
CD14 is used to compete the peptide-lipid A binding. The principle of such a binding assay is the same as for the LALF- or LBP-lipid A competition assays in which a constant amount of detectable peptide or protein is competed by an increasing amount of another peptide or protein. Instead of detecting LALF, bound biotin-labelled peptide is detected with streptavidin conjugated to alkaline phosphatase, and the labelled peptide concentration is kept constant while the unlabelled peptide or protein amount is increased. […] A very similar result is observed when LALF-14 is used instead of LBP-14.

[5] = system: LALF binding to immobilized lipid A; experiment: Competition of LALF:lipid A binding by peptides (ELISA)
Description: (§2) To investigate the specificity of peptides in binding lipid A and LPS, competition experiments with known endotoxin binding proteins such as LALF and LBP and the antibiotic polymyxin B are carried out. Thus an ELISA plate (NUNC, Polysorp 96U) is coated for 90 min. at 37° C. with 100 μl lipid A in PBS (0.25-0.3 μg/ml) or lipopolysaccharide in PBS (0.25-0.3 μg/ml). All further steps are done at room temperature. After washing and blocking (10 min.) with PBS/0.1% Tween, the solid phase is incubated for 1 hr with 100 μl or increasing amounts (0.01 μg/ml-100 μg/ml in PBS/0.1% Tween) of unlabelled or biotin-labelled peptides mixed with an endotoxin binding protein (LALF or LBP; 0.2 μg/ml in PBS/0.1% Tween). After washing with PBS/0.1% Tween, the ELISA plate is incubated for 45 min. with 100 μl of a rabbit antiserum against LALF or LBP, respectively. After washing with PBS/0.1% Tween the ELISA plate is incubated with 100 μl anti-rabbit antibody conjugated to alkaline phosphatase (SIGMA; 1:10000 diluted in PBS/0.1% Tween) and washed with PBS/0.1% Tween and 100 mM Tris pH 9.5. p-Nitrophenyl-phosphate (2 mg/ml in 100 mM Tris pH 9.5) is used as a substrate for alkaline phosphatase. The ELISA is read at 405 nm.

[6] = LPS binding as shown by ELISA (general description); conditions: FIG. 2-7 peptides
Text: (§3) In a still further preferred embodiment, the present invention provides for peptides which effectively bind to LPS and are constrained to adopt a circular conformation by an intramolecular bridge. In this context, the circular conformation can be brought about by any one of a number of intramolecular bridges. Preferably, the peptide may incorporate two cysteine residues between which a disulfide bond is formed by an oxidation reaction. Alternatively, the two cysteines may be linked through a homo-bifunctional cross-linking reagent, such as a bis-maleimide. Particularly preferred are the cyclic peptides comprising amino acids 31 to 52 and amino acids 38 to 45 of LALF, each stabilized by a disulfide bond formed between two cysteine residues, producing a cyclic conformation (FIG. 2). […] This defines a minimal LPS-binding domain to be the peptide spanning amino acids 38 to 45 of LALF. […] Thus, particularly preferred are also the peptides spanning amino acids 90 to 101 and amino acids 90 to 97 of LBP (FIG. 3). […] This defines a second minimal LPS binding domain to be the peptide spanning amino acids 90 to 97 of LBP. […] Particularly preferred are the peptides spanning amino acids 90 to 97 and amino acids 90 to 101 of BPI (FIG. 4). This defines a third minimal LPS-binding domain to be the peptide spanning amino acids 90 to 97 of BPI.

[7] = Limulus amebocyte lysate test (gelling assay); type: biochemical, E. coli; conditions: peptides 0.1-10 μg/ml preincubated with LPS 15 min at 37° C.; FIG. 19
Description: as §1

[8] = system: LBP binding to immobilized lipid A; experiment: Competition of LBP:lipid A binding by peptides (ELISA); conditions: 100 μg/ml peptide; FIG. 15
Description: as §2
The ability of the peptides to compete with LBP for binding to LPS is determined in the same way as in Example 5, except that LALF is replaced with LBP (see FIG. 15). […]

[9] = system: monocytes (LPS Re-LPS F515 induced TNF release); experiment: Inhibition of LPS-mediated TNF release by monocytes; type: cell-based, human; conditions: peptide 10 μg/ml preincubated with LPS; TNF by ELISA; FIG. 20
Description: Monocytes are purified with a ficoll gradient (d=1.077) from whole blood by centrifugation for 20 min. at 2200 rpm at room temperature. Ficoll is removed by washing 3 times with PBS. Purified monocytes are counted and diluted to 2×10^6 cells/900 μl in medium (RPMI+) or medium with 0.1%-10% human serum. For TNF induction, 2×10^6 monocytes (in 900 μl medium or medium with serum) and 100 μl of LPS (Re-LPS F515; 0.1 ng/ml-10 ng/ml) or mixtures of LPS with peptides (10 μg/ml) (preincubated for 15 min. at 37° C.) are incubated in a 24 well plate (NUNC) for 2 to 5 hr. The supernatant is taken off and spun twice for 2 min. at 1500 rpm, once for 5 min. at 15000 rpm and stored at −20° C. for TNF determination. The induced TNF is assayed by ELISA according to the manufacturer's instruction (BioSource International, California) using a 50 μl sample of thawed supernatant.

[10] = LPS binding as determined by ELISA (general description); set-up: species or system E. coli
Text: as §3

[11] = Binding of fluorescein-labelled LPS to biotinylated peptides immobilized via streptavidin; set-up: species or system Salmonella enteriditis; conditions: peptide 1 or 10 μg/ml on streptavidin plate, FITC-LPS 0.5 μg/ml; FIG. 12
Description: To investigate the potential use of multimeric peptides for increasing the binding to LPS, individual peptides are coated on an ELISA plate to high surface concentrations. Immobilization is performed by first coating the plate with strepravidin and then binding the peptides via their N-terminal biotin groups. Thus, 100 μl streptavidin (Boehringer Mannheim GmbH; 10 μg/ml in PBS) is used for coating followed by washing, blocking (10 min.) with PBS/0.1% Tween and a 30 min. incubation with 100 μl of purified synthetic peptides (1 μg/ml or 10 μg/ml in PBST) labelled at the N-terminus with biotin. After washing with PBS/0.1% Tween the peptides are incubated for 1 hr With FITC-labelled LPS (SIGMA; Salmonella enteriditis; 0.5 μg/ml in PBS/0.1% Tween). After washing with PBS/0.1% Tween, the ELISA plate is incubated with 100 μl of an anti-FITC antibody conjugated to alkaline phosphatase (SIGMA; 1:2500 diluted in PBS/0.1% Tween) and washed with PBS/0.1% Tween and 100 mM Tris pH 9.5. p-Nitrophenyl-phosphate (2 mg/ml in 100 mM Tris pH 9.5) is used as a substrate for alkaline phosphatase. The ELISA is read at 405 nm. All steps are done at room temperature.

[12] = peptide 0.01-100 μg/ml, LALF 0.2 μg/ml, FIG. 13, 14

Compound: Biotin-Z-C-K-W-K-I-R-K-F-S-C-N (Z=β-alanine) [MS-22]
- lipid A-binding activity (ELISA) [1]: binds lipid A clearly above background level and with a similar activity to LBP-10-1, but weaker than MS-21

Compound: I-K-T-K-K-F-L-K-K-T (IKTKKFLKKT) [PolP-1]
- inhibition of the chromogenic Limulus amebocyte lysate assay [2]: up to 25%
- competition with LALF for lipid A binding in the presence of 10% serum [3]: only inhibit slightly above background
- competition of LBP-14 binding to lipid A [4]: only slightly above the background determined by lysozyme as competitor
- competition with LALF for lipid A binding [5, 12]: hardly competes with LALF for lipid A binding

Compound: lysozyme
- competition of LBP-14 binding to lipid A [4]: background determined by lysozyme as competitor
- competition with LALF for lipid A binding ([5]; at 100 μg/ml peptide, FIG. 14): 10%
- competition with LALF for lipid A binding [5, 12]: not able to compete with LALF

Compound: amino acids 90 to 97 of BPI: peptide spanning amino acids 90 to 97 of BPI, cyclic by disulfide bond between two cysteines
- binding to LPS as shown by ELISA [6]: able to bind LPS

Compound: polymyxin B
- inhibition of LPS-mediated gelling of Limulus amebocyte lysate [7]: inhibit the assays
- competition with LALF for lipid A binding in the presence of 10% serum [3]: also inhibiting in the presence of 10% serum
- competition with LBP for lipid A binding [8]: not able to compete with LBP for binding to lipid A
- inhibition of TNF release [9]: 95%
- competition of LBP-14 binding to lipid A [4]: only weak competition activity at the highest concentration used
- competition with LALF for lipid A binding [5, 12]: able to displace LALF almost completely from immobilized lipid A

Compound: CC[C@H](C)[C@@H]1NC(=O)[C@H](CCCNC(=N)N)NC(=O)[C@H](Cc2ccc(O)cc2)NC(=O)[C@H](Cc2c[nH]cn2)NC(=O)[C@@H](N)CSSC[C@@H](C(=O)O)NC(=O)[C@H](Cc2c[nH]c3ccccc23)NC(=O)[C@H](Cc2ccccc2)NC(=O)[C@H](CCCCN)NC(=O)CNC(=O)[C@H](CCCCN)NC(=O)[C@H](Cc2ccc(O)cc2)NC(=O)[C@H](CCCCN)NC(=O)[C@H](Cc2c[nH]c3ccccc23)NC(=O)[C@H](CCCCN)NC(=O)[C@H](CC(C)C)NC(=O)[C@H](CCCNC(=N)N)NC(=O)[C@H](CCCNC(=N)N)NC(=O)[C@H](Cc2ccccc2)NC(=O)[C@H]([C@@H](C)O)NC(=O)[C@@H]2CCCN2C(=O)[C@H](CCCCN)NC1=O [amino acids 31 to 52 of LALF] (H-CHYRIKPTFRRLKWKYKGKFWC-OH; disulfide 1-22; N-terminus and C-terminus assumed)
- binding to E. coli EH 100 LPS as determined by ELISA [10]: Both bind lipid A and, additionally, two different types of LPS-molecules

Compound: Biotin-Z-K-C-F-T-R-R-A-K-W-R-C (Z=β-alanine) [MS-21]
- lipid A-binding activity (ELISA) [1]: binds lipid A weaker than LALF-14 and LBP-14, but slightly better than BPI-14
- binding of FITC-labelled LPS to immobilized peptide [11]: highest binding affinity to LPS
- competition with LALF for lipid A binding ([5]; at 100 μg/ml peptide, FIG. 14): ~80%

Compound: CC(C)C[C@@H]1NC(=O)[C@H](CCCNC(=N)N)NC(=O)[C@H](CCCNC(=N)N)NC(=O)[C@H](Cc2ccccc2)NC(=O)[C@H]([C@@H](C)O)NC(=O)[C@@H](NC(=O)CCCC[C@@H]2SC[C@@H]3NC(=O)N[C@@H]32)CSSC[C@@H](C(=O)O)NC(=O)[C@H](CCCCN)NC(=O)[C@H](Cc2c[nH]c3ccccc23)NC(=O)[C@H](CCCCN)NC1=O [LALF-10] (Biotin-CTFRRLKWKC-OH; disulfide 1-10)
- binding to E. coli EH 100 LPS as determined by ELISA [10]: Both bind lipid A and, additionally, two different types of LPS-molecules

— patent US6384188B1, “Lipopolysaccharide-binding and neutralizing peptides” (Dana-Farber Cancer Institute, Inc., priority 1993, dated 2002)
